From patent publication US11401253B2, “16-methyl-oxacyclohexadecan-2-one and 16-methyl-azacyclohexadecan-2-one derivatives as antimicrobial agents” (THE UNIVERSITY OF MONTANA, priority 2017, dated 2022)
≈ marks a conversion by molar mass, not a printed value. Where “and” joins values, the source holds several entries; their conditions need not be identical. Equal entries are not always repeated. Where two headings read alike, the source gives them in different places.

Tests used:
[1] = tested on: K. pneumoniae (10031); assay: Antibiotic testing (MIC), gram negative K. pneumoniae; assay type: cell-based
Method: (§1) None of this collection of compounds were active against Gram-negative bacteria
(§2) Additionally, BPL 76 and derivatives were tested against a panel of gram negative bacteria including K. pneumonia, P. aeruginosa and E. coli (Table 12).

[2] = tested on: P. aeruginosa; assay: Antibiotic testing (MIC), gram negative P. aeruginosa; assay type: cell-based
Method: as §1, §2

[3] = tested on: E. coli (25922); assay: Antibiotic testing (MIC), gram negative E. coli; assay type: cell-based
Method: as §1, §2

[4] = biological target: T1, MMP-3 (Homo sapiens, UniProt P08254); assay: MMP-3 enzyme inhibition assay; assay type: biochemical
T1 construct: purchased BioMol
Method: The two fungi were also co-cultured under controlled conditions. P. fuscum was grown in pure culture in potato dextrose broth (10×400 mL). After 24 h, an agar cube (8 mm^3) impregnated with P. camembertii/clavigerum mycelium was added to each flask and the resulting co-culture was shaken for 6 more days (200 rpm, room temperature). At time of harvest, methanol (50 mL/flask) was added, the mycelia were removed by gravity filtration and the broth was extracted with chloroform (3×2 L). The chloroform was removed in vacuo to yield 663 mg of crude extract. The crude extract was verified to be active in the MMP-3, caspase-1 and caspase-3 enzyme inhibition assays. Enzyme inhibitory activity was determined using specific BioMol enzyme inhibition assay kits for drug discovery as described in Stierle, A; Stierle, D. The Berkeleylactones, Antibiotic Macrolides from Fungal Coculture. J. Nat. Prod. 80, 4, 1150-1160.

[5] = tested on: Staphylococcus aureus (13709); assay: Antibiotic testing (MIC), S. aureus 13709; assay type: cell-based; conditions: growth inhibition ≥90% relative to drug-free controls, read-out: minimum inhibitory concentration, Staphylococcus aureus (13709)
[6] = tested on: Streptococcus pyogenes; assay: Antibiotic testing (MIC), Streptococcus pyogenes; assay type: cell-based; conditions: growth inhibition ≥90%, read-out: minimum inhibitory concentration, Streptococcus pyogenes
[7] = tested on: Candida glabrata; assay: Antibiotic testing (MIC), Candida glabrata; assay type: cell-based; conditions: Nakaseomyces glabratus; growth inhibition ≥90%; read-out: minimum inhibitory concentration, Candida glabrata
[8] = tested on: Bacillus subtilis; assay: Antibiotic testing (MIC), Bacillus subtilis; assay type: cell-based; conditions: growth inhibition ≥90%, read-out: minimum inhibitory concentration, Bacillus subtilis
[9] = tested on: C. albicans; assay: Antibiotic testing (MIC), C. albicans; assay type: cell-based; conditions: Candida albicans; growth inhibition ≥90%; read-out: minimum inhibitory concentration, C. albicans
[10] = tested on: B. anthracis; assay: microbe, parasite or virus in culture; assay type: cell-based; conditions: Bacillus anthracis, read-out: minimum inhibitory concentration, B. anthracis
[11] = tested on: S. aureus CAIRD116; assay: Antibiotic testing, methicillin-resistant S. aureus CAIRD116; assay type: cell-based; conditions: methicillin-resistant strain; for MIC: Staphylococcus aureus, CAIRD116
From the text: (§3) Both the methyl ester and the diacetate derivatives of BPL 76 slightly less but still very strong activity against the same four MRSA strains (Table 11). The activities of compounds BPL 76 and BPL 81 were compared to several known antibiotics against three methicillin-resistant strains of S. aureus [FIG. 6, comparative data provided by Hartford Hospital, Center for Anti-Infective Research and Development (CAIRD)].

[12] = tested on: S. aureus CAIRD142; assay: Antibiotic testing, methicillin-resistant S. aureus CAIRD142; assay type: cell-based; conditions: methicillin-resistant strain; for MIC: Staphylococcus aureus, CAIRD142
From the text: as §3

[13] = tested on: S. aureus CAIRD148; assay: Antibiotic testing, methicillin-resistant S. aureus CAIRD148; assay type: cell-based; conditions: methicillin-resistant strain; for MIC: Staphylococcus aureus, CAIRD148
From the text: as §3

[14] = tested on: S. aureus (NE277); assay: Antibiotic testing, methicillin-resistant S. aureus NE277; assay type: cell-based; conditions: for MIC: Staphylococcus aureus, read-out: antibiotic testing data (MIC), S. aureus (NE277); for antibiotic testing data (MIC), S. aureus (NE277): methicillin-resistant strain
From the text: as §3

[15] = tested on: non-replicating persistence Mycobacterium tuberculosis (NRP-TB); assay: Low oxygen recovery assay (LORA), non-replicating persistence Mtb; assay type: cell-based; conditions: Mycobacterium tuberculosis; non-replicating persistence, hypoxic conditions; read-out: MIC, LORA
[16] = tested on: Vero cell; assay: Cytotoxicity (MTS), Vero cells; assay type: cell-based, monkey; conditions: Primates, 72 hours exposure
[17] = tested on: HepG2; assay: Cytotoxicity (MTS), HepG2 cells; assay type: cell-based; conditions: Homo sapiens, 72 hours exposure
[18] = tested on: J774; assay: Cytotoxicity (MTS), J774 cells; assay type: cell-based, murine; conditions: Mus musculus, 72 hours exposure
[19] = tested on: Mycobacterium tuberculosis; assay: microbe, parasite or virus in culture; conditions: read-out: MIC, MABA
[20] = Klebsiella pneumoniae; read-out: MIC, K. pneumoniae (10031)
[21] = Pseudomonas aeruginosa; read-out: MIC, P. aeruginosa
[22] = Escherichia coli; read-out: MIC, E. coli (25922)

T1 sequence (P08254 100-477): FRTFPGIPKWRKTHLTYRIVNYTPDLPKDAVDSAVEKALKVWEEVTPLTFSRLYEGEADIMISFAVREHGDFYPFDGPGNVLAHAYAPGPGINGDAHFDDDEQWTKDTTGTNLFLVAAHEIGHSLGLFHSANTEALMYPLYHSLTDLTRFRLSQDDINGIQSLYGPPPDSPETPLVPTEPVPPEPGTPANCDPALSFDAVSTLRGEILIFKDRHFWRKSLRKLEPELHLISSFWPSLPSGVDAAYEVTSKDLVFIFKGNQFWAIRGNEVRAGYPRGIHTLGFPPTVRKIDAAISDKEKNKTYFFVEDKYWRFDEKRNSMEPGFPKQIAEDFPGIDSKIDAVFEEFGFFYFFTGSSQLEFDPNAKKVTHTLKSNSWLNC

SMILES: C[C@H]1OC(=O)/C=C/C(=O)[C@@H](OC(=O)CCC(=O)O)CCCCCCCC[C@@H]1O [BPL 77, 4-(((6S,15S,16R,E)-15-hydroxy-16-methyl-2,5-dioxooxacyclohexadec-3-en-6-yl)oxy)-4-oxobutanoic acid]
- activity against K. pneumonia (in words) [1]: weakly active
- MIC [1, 20]: 1000 µM and 398 µg/mL
- MIC [2, 21]: > 1000 µM
- activity against E. coli (in words) [3]: weakly active
- MIC [3, 22]: 500 µM and 199 µg/mL

SMILES: C[C@@H]1CC(O)CCCCCCC[C@H](OC(=O)CCC(=O)O)C(=O)/C=C/C(=O)O1 (stereo partly drawn) [BPL 78, 4-(((6S,16R,E)-14-hydroxy-16-methyl-2,5-dioxooxacyclohexadec-3-en-6-yl)oxy)-4-oxobutanoic acid]
- MIC [1, 20]: > 1000 µM
- MIC [2, 21]: > 1000 µM
- MIC [3, 22]: > 1000 µM
- MMP-3 inhibition [4]: weaker inhibitors

SMILES: CC(=O)O[C@H]1CCCCCCCC[C@H](OC(C)=O)[C@H](OC(C)=O)/C=C/C(=O)O[C@@H]1C [BPL 79 Ac, (2R,3S,12S,13R,E)-2-methyl-16-oxooxacyclohexadec-14-ene-3,12,13-triyl triacetate]
- MIC [1, 20]: > 500 µM
- MIC [2, 21]: > 500 µM
- MIC [3, 22]: > 500 µM

SMILES: C[C@H]1OC(=O)/C=C/[C@@H](O)[C@@H](O)CCCCCCCC[C@@H]1O [BPL 79, (5R,6S,15 S,16R,E)-5,6,15-trihydroxy-16-methyloxacyclohexadec-3-en-2-one]
- MIC [5]: 19 µg/mL (≈ 63.3 µM)
- MIC [6]: 150 µg/mL (≈ 499 µM)
- MIC [7]: > 300 µg/mL
- MIC [8]: > 300 µg/mL
- MIC [9]: > 300 µg/mL
- MIC [10]: 75 µg/mL (≈ 250 µM)
- MIC [1, 20]: > 1000 µM
- MIC [2, 21]: > 1000 µM
- MIC [3, 22]: > 1000 µM

SMILES: C[C@@H]1CCCCCCCCC[C@H](OC(=O)CCC(=O)O)C(=O)/C=C/C(=O)O1 [BPL 81, 4-(((6S,16R,E)-16-methyl-2,5-dioxooxacyclohexadec-3-en-6-yl)oxy)-4-oxobutanoic acid]
- MIC [5]: 3 µg/mL (≈ 7.84 µM)
- MIC [6]: 48 µg/mL (≈ 126 µM)
- MIC [7]: 48 µg/mL (≈ 126 µM)
- MIC [8]: 12 µg/mL (≈ 31.4 µM)
- MIC [9]: 96 µg/mL (≈ 251 µM)
- MIC [10]: 6 µg/mL (≈ 15.7 µM)
- MIC [11]: 6 µg/mL (≈ 15.7 µM)
- antibiotic testing data (MIC), S. aureus CAIRD116 [11]: 16 µM
- MIC [12]: 6 µg/mL (≈ 15.7 µM)
- antibiotic testing data (MIC), S. aureus CAIRD142 [12]: 16 µM
- MIC [13]: 6 µg/mL (≈ 15.7 µM)
- antibiotic testing data (MIC), S. aureus CAIRD148 [13]: 16 µM
- MIC [14]: 6 µg/mL (≈ 15.7 µM)
- antibiotic testing data (MIC), S. aureus (NE277) [14]: 16 µM
- MIC [1, 20]: > 250 µM
- MIC [2, 21]: > 250 µM
- MIC [3, 22]: > 250 µM
- MIC [15]: > 100 µg/mL
- IC50 [16]: 55.7 µg/mL (≈ 146 µM)
- IC50 [17]: > 100 µg/mL
- IC50 [18]: 37.2 µg/mL (≈ 97.3 µM)
- MIC [19]: 47 µg/mL (≈ 123 µM)

SMILES: C[C@H]1OC(=O)/C=C/[C@@H](O)[C@@H](OC(=O)CCC(=O)O)CCCCCCCC[C@@H]1O [BPL 86, 4-(((5R,6S,15 S,16R,E)-5,15-dihydroxy-16-methyl-2-oxooxacyclohexadec-3-en-6-yl)oxy)-4-oxobutanoic acid]
- MIC [5]: 24 µg/mL (≈ 59.9 µM)
- MIC [6]: > 50 µg/mL
- MIC [7]: > 50 µg/mL
- MIC [8]: > 50 µg/mL
- MIC [9]: > 50 µg/mL
- MIC [10]: 24 µg/mL (≈ 59.9 µM)
- MIC [11]: 47 µg/mL (≈ 117 µM)
- antibiotic testing data (MIC), S. aureus CAIRD116 [11]: 125 µM
- MIC [12]: 47 µg/mL (≈ 117 µM)
- antibiotic testing data (MIC), S. aureus CAIRD142 [12]: 125 µM
- MIC [13]: 47 µg/mL (≈ 117 µM)
- antibiotic testing data (MIC), S. aureus CAIRD148 [13]: 125 µM
- MIC [14]: 47 µg/mL (≈ 117 µM)
- antibiotic testing data (MIC), S. aureus (NE277) [14]: 125 µM
- MIC ([1]; Klebsiella pneumoniae, read-out: MIC, K. pneumoniae (10031)): > 125 µM
- MIC ([2]; Pseudomonas aeruginosa, read-out: MIC, P. aeruginosa): > 125 µM
- MIC ([3]; Escherichia coli, read-out: MIC, E. coli (25922)): > 125 µM
- MMP-3 inhibition [4]: weaker inhibitors

SMILES: C[C@@H]1CCCCCCCCCC[C@H](O)/C=C/C(=O)O1 [BPL 94, (5S,16R,E)-5-hydroxy-16-methyloxacyclohexadec-3-en-2-one]
- MIC [5]: 34 µg/mL (≈ 127 µM)
- MIC [6]: 67 µg/mL (≈ 250 µM)
- MIC [7]: > 67 µg/mL
- MIC [8]: 34 µg/mL (≈ 127 µM)
- MIC [9]: > 67 µg/mL
- MIC [10]: 34 µg/mL (≈ 127 µM)
- MIC [15]: 20 µg/mL (≈ 74.5 µM)
- IC50 [16]: 43.8 µg/mL (≈ 163 µM)
- IC50 [17]: 85.2 µg/mL (≈ 317 µM)
- IC50 [18]: 40.7 µg/mL (≈ 152 µM)
- MIC [19]: 39 µg/mL (≈ 145 µM)

SMILES: C[C@@H]1CCCCCCCCC[C@H](O)[C@H](O)/C=C/C(=O)O1 [BPL 95, (5R,6S,16R,E)-5,6-dihydroxy-16-methyloxacyclohexadec-3-en-2-one]
- MIC [5]: 48 µg/mL (≈ 169 µM)
- MIC [6]: > 96 µg/mL
- MIC [7]: > 96 µg/mL
- MIC [8]: 48 µg/mL (≈ 169 µM)
- MIC [9]: > 96 µg/mL
- MIC [10]: > 96 µg/mL
- MIC [15]: 24 µg/mL (≈ 84.4 µM)
- IC50 [16]: 75.6 µg/mL (≈ 266 µM)
- IC50 [17]: > 100 µg/mL
- IC50 [18]: 74.1 µg/mL (≈ 261 µM)
- MIC [19]: > 100 µg/mL
